{"source": "patent US20230181491A1", "about": "“COMPOSITIONS AND METHODS FOR THE TREATMENT AND MANAGEMENT OF INFLAMMATION USING HYDROXYNORKETAMINE” (SPIRIFY PHARMA INC., priority 2020, published 2023)", "origin": "cited, not measured here", "note": "Where a name gives a salt, the structure may show the parent alone."}
{"tested_on": "rats", "details": "cited from earlier work"}
{"molecule": "(2R,6R;2S,6S)-HNK", "spontaneous locomotor activity during the postanesthetic recovery phase": "no anesthetic or hyperlocomotor effects"}
{"molecule": "NC1(c2ccccc2Cl)CCCCC1=O", "note": "(racemic) [(R,S)-norketamine]", "spontaneous locomotor activity during the postanesthetic recovery phase": "increased spontaneous locomotor activity"}
{"molecule": "CNC1(c2ccccc2Cl)CCCCC1=O", "note": "(racemic) [(R,S)-ketamine hydrochloride]", "spontaneous locomotor activity during the postanesthetic recovery phase": "increased spontaneous locomotor activity"}
